Test results taken from patent publication EP4714938A1, “HDAC1/2 SELECTIVE INHIBITOR AND USE THEREOF” (Wigen Biomedicine Technology (Shanghai) Co., Ltd., priority 2023, dated 2024).
Read-outs that look alike come from different tables or passages of the source.

Columns and labels:
HDAC2 = HDAC2 (Homo sapiens, UniProt Q92769); test: HDAC enzyme inhibitory activity, FRET method; format: biochemical
HDAC3 = HDAC3 (Homo sapiens, UniProt O15379); test: HDAC enzyme inhibitory activity, FRET method; format: biochemical
Protocol: (§3) The compounds of the present disclosure were assayed for enzyme inhibitory activity against various subtypes of HDAC enzymes by the FRET method. The various subtypes of HDAC enzymes were obtained either through purification or direct purchase of assay kits.
(§4) The specific method was as follows: The enzyme was added to a 384-well plate, and a reaction buffer was added to the control well. Serially diluted DMSO sample solutions were added to the reaction wells, and the plate was incubated at room temperature for 15 min. Then a chromogenic agent was added to stop the reaction, and fluorescence was generated. The fluorescence intensity was measured using an EnVision multi-label microplate reader (excitation: 355 nm, emission: 460 nm). The endpoint value was read after the color development reached stability. The inhibition IC50 of the compounds was calculated using GraphPad Prism4 software relative to DMSO.

HDAC4 = HDAC4 (Homo sapiens, UniProt P56524); test: HDAC enzyme inhibitory activity, FRET method; format: biochemical; conditions: Table 6; read-out: IC50 HDAC subtype 4
Protocol: as §3, §4

HDAC5 = HDAC5 (Homo sapiens, UniProt Q9UQL6); test: HDAC enzyme inhibitory activity, FRET method; format: biochemical; conditions: Table 6; read-out: IC50 HDAC subtype 5
Protocol: as §3, §4

HDAC8 = molecular target: T1, HDAC8 (Homo sapiens, UniProt Q9BY41); test: HDAC enzyme inhibitory activity, FRET method; format: biochemical; conditions: Table 6; read-out: IC50 HDAC subtype 8
T1 sequence (Q9BY41 1-377): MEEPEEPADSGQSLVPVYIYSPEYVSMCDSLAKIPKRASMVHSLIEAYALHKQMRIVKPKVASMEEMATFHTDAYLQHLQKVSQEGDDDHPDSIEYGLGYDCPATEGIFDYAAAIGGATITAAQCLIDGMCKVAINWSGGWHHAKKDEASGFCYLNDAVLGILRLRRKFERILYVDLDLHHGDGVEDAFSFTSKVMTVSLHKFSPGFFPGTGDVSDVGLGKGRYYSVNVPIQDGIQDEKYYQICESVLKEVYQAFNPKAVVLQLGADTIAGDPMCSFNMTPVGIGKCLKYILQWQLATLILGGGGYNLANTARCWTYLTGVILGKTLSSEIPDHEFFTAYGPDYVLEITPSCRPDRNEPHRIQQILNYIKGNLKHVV
Protocol: as §3, §4

293T cell = test: Inhibition of cell proliferation (CTG, intracellular ATP); format: cell-based; conditions: Homo sapiens, HEK-293T, 72 h
Protocol: (§1) Jurkat or 293T cells were seeded into a 96-well plate at 3000 cells/well. After overnight adherence culture, the serially diluted compound in DMSO was added. After 72 h, the intracellular ATP level was determined by CTG. The IC50 for the inhibition of cell proliferation by the compounds was calculated compared to the DMSO group. Table 7. Inhibitory activity of compounds of the present disclosure against Jurkat/293T cell proliferation (IC50, µM)

Jurkat cell = test: as above; format: cell-based; conditions: Homo sapiens, Jurkat, 72 h
Protocol: as §1

Acetyl lysine = test: Intracellular acetyl lysine level by ELISA in HeLa cells; format: cell-based; conditions: 24 h of treatment
Protocol: (§2) HeLa cells were seeded into a 96-well plate at 20000 cells/well. After overnight adherence culture, the serially diluted compound was added. After 24 h of treatment, intracellular levels of acetyl lysine and H3K 27 acetyl lysine were quantified by ELISA. Table 8. Effect of compound of the present disclosure on levels of acetyl lysine and H3K 27 acetyl lysine

H3K 27 Acetyl lysine = test: Intracellular H3K 27 acetyl lysine level by ELISA in HeLa cells; format: cell-based; conditions: 24 h of treatment
Protocol: as §2

[1] = Stability in liver microsomes; format: in vitro ADME; conditions: for half-life at 1 µM: 1 µM compound, 37 °C, NADPH regeneration system
Protocol: After the 1 µM compound was individually incubated at 37 °C for various durations with […] liver microsomes from humans, monkeys, beagles, rats, or mice in the presence of an NADPH regeneration system, LC-MS-MS was used to analyze the remaining amount of the compound, and T1/2 was calculated. Table 10. Evaluation results of stability of compounds of the present disclosure in human and mouse liver microsomes

[2] = system: Mouse colon cancer MC38 cells; conditions: MC-38
Protocol: Female C57BL6N mice (aged 6 weeks, 18-22 g) were provided by Vital River Laboratory Animal Technology Co., Ltd. (China) and used one week after quarantine and acclimation. All animals were kept in a room at 23±2 °C with a relative humidity of 50±5%, artificial lighting was provided from 08:00 to 20:00 every day, and the air was exchanged 13-18 times per hour.
Mouse colon cancer MC38 cells were cultured conventionally in 1640 medium containing 10% fetal bovine serum in an incubator at 37 °C with 5% CO2. After being subcultured, the cells were collected when they reached the desired amount. The C57BL6N mice were subcutaneously injected with 2 × 10^6 MC38 cells on the right side to form tumors. After the tumors grew to about 100 mm^3, the animals were randomly grouped for administration. Tumor volumes were measured with a caliper on day 3, day 7, day 10, day 14, day 17, and day 21 after the administration. The ability of the compounds to inhibit tumor growth was evaluated according to the tumor growth inhibition rate (TGI) = 1 - (tumor volume on day 28 in treatment group - tumor volume on day 1 in treatment group)/(tumor volume on day 28 in control group - tumor volume on day 1 in control group). The toxicity of the compounds was evaluated according to the body weight and state of the mice.
The groups were as follows: 1) solvent control group; 2) PD-1+Reg group; 3) Compound 1 group; 4) Reference Compound group; 5) compound 1 (10mg/kg) and PD-1+Reg Combination group; 6) compound 1 (30mg/kg) and PD-1+Reg Combination group; 7) compound 1 (90mg/kg) and PD-1+Reg Combination group; 8) Reference Compound (10mg/kg) and PD-1+Reg Combination group; 9) Reference Compound (30mg/kg) and PD-1+Reg Combination group; 10) Reference Compound (90mg/kg) and PD-1+Reg Combination group, with 6 mice per group.
Reg represents Regorafenib PD-1 represents an anti-PD-1 antibody; IV represents administration via intravenous injection; PO represents oral administration; QD represents once-daily administration; QW represents once-weekly administration; CR represents complete remission (complete disappearance of the tumor after the dosing cycle is completed); PR represents partial response (tumor volume reduction exceeding 30% relative to the initial volume upon completion of the administration cycle); SD represents stable disease (tumor volume reduction or growth not exceeding 30% relative to the initial volume upon completion of the administration cycle); Died represents mouse died before the dosing cycle is completed; Administration period* is once daily (QD) for 10 consecutive days, followed by a 16-day off-treatment period; the once-weekly (QW) regimen is administered only on Day 1 and Day 8.

HDAC10 = molecular target: T2, HDAC10 (Homo sapiens, UniProt Q969S8); test: biochemical
T2 sequence (Q969S8 1-669): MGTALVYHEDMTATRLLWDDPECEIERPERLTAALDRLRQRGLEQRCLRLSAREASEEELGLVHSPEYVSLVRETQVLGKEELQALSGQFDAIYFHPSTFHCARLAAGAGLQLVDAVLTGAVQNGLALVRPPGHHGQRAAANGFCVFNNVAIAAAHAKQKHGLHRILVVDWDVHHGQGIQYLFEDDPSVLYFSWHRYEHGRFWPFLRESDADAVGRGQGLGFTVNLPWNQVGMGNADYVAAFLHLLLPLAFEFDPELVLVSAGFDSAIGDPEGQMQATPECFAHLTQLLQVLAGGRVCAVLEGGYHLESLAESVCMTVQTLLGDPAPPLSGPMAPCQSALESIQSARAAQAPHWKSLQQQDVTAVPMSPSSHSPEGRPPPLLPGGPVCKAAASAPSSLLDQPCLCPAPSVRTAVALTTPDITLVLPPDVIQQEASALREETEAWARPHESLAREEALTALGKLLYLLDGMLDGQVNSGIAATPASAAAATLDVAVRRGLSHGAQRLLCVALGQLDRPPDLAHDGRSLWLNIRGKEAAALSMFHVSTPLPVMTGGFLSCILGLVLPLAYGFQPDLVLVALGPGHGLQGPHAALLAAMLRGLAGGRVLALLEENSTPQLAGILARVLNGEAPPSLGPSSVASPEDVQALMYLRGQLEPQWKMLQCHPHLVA
Protocol: as §3, §4

Sequence of HDAC2 (Q92769 whole entry, species assumed): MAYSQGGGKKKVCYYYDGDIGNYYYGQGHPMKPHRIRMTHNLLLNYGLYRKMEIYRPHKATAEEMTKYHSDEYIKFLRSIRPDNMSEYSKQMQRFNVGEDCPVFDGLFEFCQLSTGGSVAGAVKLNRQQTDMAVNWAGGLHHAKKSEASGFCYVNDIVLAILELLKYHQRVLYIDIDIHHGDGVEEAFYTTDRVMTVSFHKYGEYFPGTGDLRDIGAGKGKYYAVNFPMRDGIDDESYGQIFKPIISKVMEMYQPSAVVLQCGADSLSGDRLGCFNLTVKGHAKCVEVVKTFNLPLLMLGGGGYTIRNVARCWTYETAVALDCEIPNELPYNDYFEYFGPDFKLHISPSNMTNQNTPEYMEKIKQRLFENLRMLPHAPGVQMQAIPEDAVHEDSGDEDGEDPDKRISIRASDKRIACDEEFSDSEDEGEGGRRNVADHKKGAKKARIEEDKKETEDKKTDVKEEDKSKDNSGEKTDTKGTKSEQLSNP
Sequence of HDAC3 (O15379 whole entry, species assumed): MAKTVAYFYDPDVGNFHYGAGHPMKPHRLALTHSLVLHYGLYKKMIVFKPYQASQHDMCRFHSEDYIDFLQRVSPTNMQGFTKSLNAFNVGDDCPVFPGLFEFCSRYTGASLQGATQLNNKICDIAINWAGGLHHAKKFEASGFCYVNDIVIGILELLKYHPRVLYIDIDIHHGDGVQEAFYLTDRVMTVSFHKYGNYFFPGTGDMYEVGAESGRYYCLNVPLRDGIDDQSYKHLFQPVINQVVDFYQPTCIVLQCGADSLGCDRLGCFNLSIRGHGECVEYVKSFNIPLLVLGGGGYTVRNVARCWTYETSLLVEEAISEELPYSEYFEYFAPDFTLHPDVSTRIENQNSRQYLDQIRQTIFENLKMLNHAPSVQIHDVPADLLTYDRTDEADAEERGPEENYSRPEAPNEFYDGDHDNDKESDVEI
Sequence of HDAC3 (Q9Y618 395-489 partner limits assumed, species assumed): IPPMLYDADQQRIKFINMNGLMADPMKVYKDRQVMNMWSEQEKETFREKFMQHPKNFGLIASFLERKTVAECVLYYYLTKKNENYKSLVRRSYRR
Sequence of HDAC4 (P56524 whole entry, species assumed): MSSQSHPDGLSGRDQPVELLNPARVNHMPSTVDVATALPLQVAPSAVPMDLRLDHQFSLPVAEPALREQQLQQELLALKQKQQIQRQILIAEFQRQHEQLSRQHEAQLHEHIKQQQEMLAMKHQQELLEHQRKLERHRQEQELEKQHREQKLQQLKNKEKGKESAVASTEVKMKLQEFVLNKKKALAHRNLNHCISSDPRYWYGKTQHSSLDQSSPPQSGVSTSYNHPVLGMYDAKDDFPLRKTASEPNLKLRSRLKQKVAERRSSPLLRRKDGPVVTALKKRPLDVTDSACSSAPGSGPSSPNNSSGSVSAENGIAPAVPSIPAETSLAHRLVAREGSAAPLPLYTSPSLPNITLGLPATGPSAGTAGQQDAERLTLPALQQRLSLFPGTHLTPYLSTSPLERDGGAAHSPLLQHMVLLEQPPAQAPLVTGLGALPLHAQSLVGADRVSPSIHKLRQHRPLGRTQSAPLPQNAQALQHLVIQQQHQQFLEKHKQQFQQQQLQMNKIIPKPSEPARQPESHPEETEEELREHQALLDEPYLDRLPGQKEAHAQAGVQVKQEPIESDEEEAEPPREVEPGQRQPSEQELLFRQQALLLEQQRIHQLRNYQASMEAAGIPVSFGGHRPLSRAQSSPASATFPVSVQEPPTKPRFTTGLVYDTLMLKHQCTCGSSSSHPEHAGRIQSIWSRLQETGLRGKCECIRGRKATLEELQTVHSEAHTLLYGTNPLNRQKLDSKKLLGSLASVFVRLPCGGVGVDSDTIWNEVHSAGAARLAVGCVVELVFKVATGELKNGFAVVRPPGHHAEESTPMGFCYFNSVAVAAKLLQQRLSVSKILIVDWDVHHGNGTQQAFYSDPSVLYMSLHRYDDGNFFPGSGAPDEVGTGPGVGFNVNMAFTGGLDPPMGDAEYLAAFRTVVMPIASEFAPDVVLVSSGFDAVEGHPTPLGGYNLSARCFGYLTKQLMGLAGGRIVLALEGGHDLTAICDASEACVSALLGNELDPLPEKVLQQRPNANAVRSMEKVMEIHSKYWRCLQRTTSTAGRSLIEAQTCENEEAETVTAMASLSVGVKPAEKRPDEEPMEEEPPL
Sequence of HDAC5 (Q9UQL6 whole entry, species assumed): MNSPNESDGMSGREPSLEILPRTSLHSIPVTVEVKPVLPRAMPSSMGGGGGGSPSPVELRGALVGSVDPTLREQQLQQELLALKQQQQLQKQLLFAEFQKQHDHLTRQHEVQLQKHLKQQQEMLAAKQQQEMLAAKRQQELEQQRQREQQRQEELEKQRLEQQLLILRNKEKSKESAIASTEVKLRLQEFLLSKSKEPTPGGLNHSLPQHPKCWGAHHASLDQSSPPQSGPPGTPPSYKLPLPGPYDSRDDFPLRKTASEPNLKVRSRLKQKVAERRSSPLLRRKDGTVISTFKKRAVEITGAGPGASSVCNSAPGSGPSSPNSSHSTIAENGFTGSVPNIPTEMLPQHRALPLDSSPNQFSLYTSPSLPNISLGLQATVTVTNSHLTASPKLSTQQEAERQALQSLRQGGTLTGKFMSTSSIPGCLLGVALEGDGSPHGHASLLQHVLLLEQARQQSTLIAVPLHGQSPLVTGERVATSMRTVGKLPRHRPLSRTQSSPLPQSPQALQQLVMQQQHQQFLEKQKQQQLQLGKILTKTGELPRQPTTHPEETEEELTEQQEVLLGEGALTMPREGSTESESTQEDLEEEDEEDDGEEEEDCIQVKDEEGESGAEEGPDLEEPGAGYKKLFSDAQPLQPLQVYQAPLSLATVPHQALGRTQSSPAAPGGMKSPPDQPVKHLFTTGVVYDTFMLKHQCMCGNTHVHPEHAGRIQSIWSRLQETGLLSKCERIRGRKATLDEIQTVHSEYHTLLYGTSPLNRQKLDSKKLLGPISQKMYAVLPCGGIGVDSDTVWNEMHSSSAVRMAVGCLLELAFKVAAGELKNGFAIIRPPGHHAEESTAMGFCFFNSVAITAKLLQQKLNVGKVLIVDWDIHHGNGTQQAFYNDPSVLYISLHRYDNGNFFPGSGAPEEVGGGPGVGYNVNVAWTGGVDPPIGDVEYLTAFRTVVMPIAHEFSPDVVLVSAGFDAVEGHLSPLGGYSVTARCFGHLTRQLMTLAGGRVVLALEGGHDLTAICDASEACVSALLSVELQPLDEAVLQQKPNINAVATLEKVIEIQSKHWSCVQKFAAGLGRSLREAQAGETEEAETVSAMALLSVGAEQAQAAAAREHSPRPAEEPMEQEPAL

Compound: CS(C)(=O)=Nc1ccc(C(=O)Nc2cc(-c3ccc(F)cc3)ccc2N)cc1 [Compound 1, N-(4-Amino-4'-fluoro-[1,1'-biphenyl]-3-yl)-4-((dimethyl(oxo)-1^λ-6-sulfaneylidene)amino)benzamide]
- IC50 (HDAC2; Table 4, read-out: IC50 HDAC2): < 500 nM
- IC50 (HDAC2; Table 5, read-out: IC50 HDAC2): 30 to 300 nM
- IC50 (HDAC2; Table 6, read-out: IC50 HDAC subtype 2): 141 nM
- IC50 (HDAC3; Table 4, read-out: IC50 HDAC3): > 5000 nM
- IC50 (HDAC3; Table 5, read-out: IC50 HDAC3): > 3000 nM
- IC50 (HDAC3; Table 6, read-out: IC50 HDAC subtype 3): 5510 nM
- IC50 (HDAC4): > 30000 nM
- IC50 (HDAC5): > 30000 nM
- IC50 (HDAC8): > 30000 nM
- IC50 (293T cell): > 10000 nM
- IC50 (Jurkat cell): 650 nM
- Acetyl lysine Maximum (%) (Acetyl lysine): 500%
- Acetyl lysine Minimum effective concentration (Acetyl lysine): 16 nM
- H3K 27 Acetyl lysine Maximum (%) (H3K 27 Acetyl lysine): 200%
- H3K 27 Acetyl lysine Minimum effective concentration (H3K 27 Acetyl lysine): 80 nM
- CLint scaled at 1 µM ([1]; Human liver microsomes): 17.4 mL/min/kg
- Clliver ([1]; Human liver microsomes): 9.45 mL/min/kg
- half-life at 1 µM ([1]; Human liver microsomes): 1.67 h
- CLint scaled at 1 µM ([1]; Mouse liver microsomes): 5.55 mL/min/kg
- Clliver ([1]; Mouse liver microsomes): 5.23 mL/min/kg
- half-life at 1 µM ([1]; Mouse liver microsomes): 16.4 h
- Change in body weight(%) ([2]; monotherapy 90 mg/kg QD PO): 11.08 ± 1.08%
- Tumor response, number of mice (CR/PR/SD) ([2]; monotherapy 90 mg/kg QD PO, CR complete remission, PR partial response, SD stable disease, 6 mice per group): 5CR
- TGI(%) ([2]; monotherapy 90 mg/kg, QD for 10 consecutive days, PO): 100.54%
- complete tumor regression, % of mice ([2]; monotherapy group (5/6)): 83.3%
- IC50 (HDAC10): 22.2 nM
